Data reported in patent publication US5198445A, “Composition and use of substituted 3-thio-2-propynenitriles as industrial antimicrobials” (The Dow Chemical Company, priority 1992, dated 1993).
≈ marks a conversion by molar mass, not a printed value. Where two headings read alike, the source gives them in different places.

Tests used:
[1] = test system: Saccharomyces cerevisiae (Sc); assay: MIC in malt yeast agar, Saccharomyces cerevisiae; assay type: cell-based, Saccharomyces cerevisiae ATCC 4105; conditions: read-out: Minimum Inhibitory Concentration, Sc
Method: (§1) The minimum inhibitory concentration (MIC) for the compounds listed in Table I is determined for 9 bacteria, using nutrient agar, and 7 yeast and fungi, using malt yeast agar. A one percent solution of the test compound is prepared in a mixture of acetone and water. Nutrient agar is prepared at pH 6.8, representing a neutral medium, and at pH 8.2, representing an alkaline medium. The nutrient agars are prepared by adding 23 g of nutrient agar to one-liter of deionized water. In addition, the alkaline medium is prepared by adjusting a 0.04M solution of N-[tris-(hydroxymethyl)methyl]-glycine buffered deionized water with concentrated sodium hydroxide to a pH of […]. Malt yeast agar is prepared by adding 3 g yeast extract and 45 g malt agar per liter of deionized water. The specific agar is dispensed in 30 ml aliquots into 25×200 mm test tubes, capped and autoclaved for 15 minutes at 115° C. The test tubes containing the agar are cooled in a water bath until the temperature of the agar is 48° C. Then, an appropriate amount of the one percent solution of the test compound is added (except in the controls where no compound is added) to the respective test tubes so that the final concentrations are 500, 250, 100, 50, 25, 10, 5, 2.5, 1.0 and zero parts per million of the test compound in the agar, thus having a known concentration of test compound dispersed therein. The contents of the test tubes are then transferred to respective petri plates. After drying for 24 hours, the petri plates containing nutrient agar are inoculated with bacteria and those containing malt yeast agar are inoculated with yeast and fungi.
(§2) The inoculation with the yeast and fungi is accomplished as follows. Cultures of yeast and fungi are incubated for seven days on malt yeast agar at 30° C. These cultures are used to prepare suspensions by the following procedure. A suspension of each organism is prepared by adding 10 ml of sterile saline and 10 microliters of octylphenoxy polyethoxy ethanol (TRITON® X-100, a trademark of Rohm & Haas Company) to the agar slant of yeast or fungi. The sterile saline/octylphenoxy polyethoxy ethanol solution is then agitated with a sterile swab to suspend the microorganism grown on the slant. Each resulting suspension is diluted into sterile saline (1 part suspension: 9 parts sterile saline). Aliquots of these dilutions are placed in individual wells of Steer's Replicator and petri plates inoculated as previously described. The petri plates are incubated at 30° C. and read after 48 hours for yeast and 72 hours for fungi.
(§3) Table II lists the bacteria, yeast and fungi used in the MIC test described above along with their respective American Type Culture Collection (ATCC) identification numbers.
(§4) The following MIC and MEC antimicrobial tests, whose results are shown in Tables XIII-XVII, are performed using the same methods as described hereinabove.

[2] = test system: Aureobasidium pullulan (Ap); assay: MIC in malt yeast agar, Aureobasidium pullulan; assay type: cell-based, Aureobasidium pullulan ATCC 16622; conditions: read-out: Minimum Inhibitory Concentration, Ap
Method: as §1, §2, §3, §4

[3] = test system: Pseudomonas aeruginosa (Pa); assay: MIC in nutrient agar, Pseudomonas aeruginosa; assay type: cell-based, Pseudomonas aeruginosa ATCC 10145
Method: as §1
The inoculation with bacteria is accomplished by using the following procedure. Twenty-four hour-cultures of each of the bacteria are prepared by incubating the respective bacteria in tubes containing nutrient broth for 24 hours at 30° C. in a shaker. Dilutions of each of the 24 hour-cultures are made so that nine separate suspensions (one for each of the nine test bacteria) are made, each containing 10^8 colony forming units (CFU) per ml of suspension of a particular bacteria. Aliquots of 0.3 ml of each of the bacterial suspensions are used to fill the individual wells of Steer's Replicator. For each microbial suspension, 0.3 ml was used to fill three wells (i.e., three wells of 0.3 ml each) so that for the nine different bacteria, 27 wells are filled. The Steer's Replicator is then used to inoculate both the neutral and alkaline pH nutrient agar petri plates.
The inoculated petri plates are incubated at 30° C. for 48 hours and then read to determine if the test compound which is incorporated into the agar prevented growth of the respective bacteria.
as §3, §4

[4] = test system: mixture of the bacterial organisms listed in Table II; assay: MEC in tape joint formulation after 3 months storage; assay type: cell-based, bacteria listed in Table II; conditions: 2190 h, pH between 5 and 7, after 3 months storage at room temperature
Method: (§5) The formulations are separated into 50 g aliquots and placed in sterile bottles. An appropriate amount of a fresh one percent stock solution of the test compound in acetone-water is added to achieve the desired final concentrations. A small portion of each of the test formulations is streaked onto Tryptic Soy Agar (TSA) petri plates using sterile cotton swabs to ensure that the formulations are sterile. If the formulation is sterile, then it is inoculated with 0.1 ml of a mixture of equal aliquots of the 24 hour cultures of each of the bacterial organisms listed in Table II. The test formulations are then incubated at 30° C. After 24 hours, each sample is streaked onto a TSA petri plate using a sterile swab. All plates are then incubated at 30° C. for 48 hours and then rated for microbial growth using the rating system listed in Table VIII. Samples with a rating of 3 or less are reinoculated as described in the procedure for the first inoculation. Samples with a rating of 4 or greater are not reinoculated but after another 24 hours are restreaked on TSA agar.
(§6) The normal interpretation of the results is that a concentration of the antimicrobial being tested is considered to be effective if no ratings greater than a 3 are observed throughout the 10 challenges. […]

[5] = test system: mixture of the bacterial organisms listed in Table II; assay: MEC in paint formulation after 1 month storage; assay type: cell-based, bacteria listed in Table II; conditions: 730 h, pH between 7 and 9, after 1 month storage at room temperature
Method: as §5, §6

[6] = Stability of 3-thio-2-propynenitriles at pH 7 or above / in basic solution; assay type: physicochemical; conditions: basic solution / pH of 7 or above
From the text: It has also been discovered that the compounds of the present invention may degrade at a pH of 7 or above over an extended time period to compounds which are less antimicrobially active than the original compounds of the present invention.

[7] = pH 8.2, read-out: Minimum Inhibitory Concentration, Pa

SMILES	MIC ([1]; malt yeast agar) [µg/mL]	MIC ([2]; malt yeast agar) [µg/mL]	MIC [1] [µg/mL]	MIC [3, 7] [µg/mL]	minimal effective concentration [4] [µg/mL]	minimal effective concentration [5] [µg/mL]	stability [6]	MIC ([3]; pH 6.8, read-out: Minimum Inhibitory Concentration, Pa) [µg/mL]	MIC [2] [µg/mL]
CCSC#CC#N [B, 3-ethylthio-2-propynenitrile]	< 1	< 1							
N#CC#CSC1CCCC1 [C, 3-cyclopentylthio-2-propynenitrile]		2.5 (≈ 16.5 µM)	2.5 (≈ 16.5 µM)						
CSC#CC#N [Compound A, 3-methylthio-2-propynenitrile]	0.5 (≈ 5.15 µM)	2.5 (≈ 25.7 µM)		2.5 (≈ 25.7 µM)	> 50	> 50	observed to decompose in a basic solution to several compounds		
CSC=C(Cl)C#N [Compound G, 2-chloro-3-(methylthio)-2-propenenitrile]			100 (≈ 748 µM)	5 (≈ 37.4 µM)	> 50			50 (≈ 374 µM)	50 (≈ 374 µM)
N#CC#CSc1ccc(Cl)cc1 [D, 3-(4-chlorophenylthio)-2-propynenitrile]	< 1	< 1							
